pKi: −log10 of the molar value.
Columns and labels:
[1] = tested on: BoNT/A induced paralysis; conditions: cited from earlier work
[2] = in vivo; cited from earlier work
[3] = tested on: AChE; conditions: cited from earlier work
[4] = biological target: BChE (Equus caballus, UniProt P81908); type: biochemical, equine
[5] = biological target: AChE purified from Electrophorus electricus (Electric eel) (Electrophorus electricus, UniProt O42275); experiment: biochemical; type: biochemical
[6] = tested on: cholinergic esterases; type: biochemical
[7] = biological target: AChE (Electrophorus electricus, UniProt O42275); type: biochemical
AChE (Electrophorus electricus, UniProt O42275), sequence (O42275 24-633): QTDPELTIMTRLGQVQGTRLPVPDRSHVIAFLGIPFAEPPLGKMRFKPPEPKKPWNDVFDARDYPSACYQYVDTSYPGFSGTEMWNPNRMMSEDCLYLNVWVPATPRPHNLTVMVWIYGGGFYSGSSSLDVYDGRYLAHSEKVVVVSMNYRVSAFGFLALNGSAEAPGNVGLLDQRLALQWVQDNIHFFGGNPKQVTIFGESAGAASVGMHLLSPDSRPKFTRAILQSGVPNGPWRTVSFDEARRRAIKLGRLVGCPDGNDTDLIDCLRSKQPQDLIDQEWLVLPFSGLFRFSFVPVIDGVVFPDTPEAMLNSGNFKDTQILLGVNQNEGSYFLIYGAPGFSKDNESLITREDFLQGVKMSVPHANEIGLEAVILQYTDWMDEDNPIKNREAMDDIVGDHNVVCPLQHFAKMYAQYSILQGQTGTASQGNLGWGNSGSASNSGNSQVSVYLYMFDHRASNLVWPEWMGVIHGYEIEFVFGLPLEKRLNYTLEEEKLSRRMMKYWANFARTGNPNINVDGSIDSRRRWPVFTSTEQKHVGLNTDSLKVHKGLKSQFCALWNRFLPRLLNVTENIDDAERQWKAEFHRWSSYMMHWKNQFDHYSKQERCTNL

AChE purified from Electrophorus electricus (Electric eel), sequence (O42275 24-633): as above
BChE, sequence (P81908 whole entry): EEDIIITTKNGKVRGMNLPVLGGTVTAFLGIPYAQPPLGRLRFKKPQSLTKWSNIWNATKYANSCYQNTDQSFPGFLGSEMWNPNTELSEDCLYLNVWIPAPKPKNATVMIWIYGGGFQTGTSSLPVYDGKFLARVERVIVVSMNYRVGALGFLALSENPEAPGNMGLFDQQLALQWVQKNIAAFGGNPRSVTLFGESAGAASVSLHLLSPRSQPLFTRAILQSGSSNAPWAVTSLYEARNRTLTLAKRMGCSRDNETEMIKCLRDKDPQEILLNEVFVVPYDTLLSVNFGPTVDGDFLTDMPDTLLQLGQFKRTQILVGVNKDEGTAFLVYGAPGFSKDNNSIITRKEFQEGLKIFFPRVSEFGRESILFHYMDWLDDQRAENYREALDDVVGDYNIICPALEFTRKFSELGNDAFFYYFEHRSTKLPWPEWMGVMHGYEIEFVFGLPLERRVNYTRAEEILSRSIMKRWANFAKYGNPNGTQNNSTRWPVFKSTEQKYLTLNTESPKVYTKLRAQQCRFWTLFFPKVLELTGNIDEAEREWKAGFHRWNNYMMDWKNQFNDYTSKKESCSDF

## Nc1cncc(N)c1N [3,4,5-triaminopyridine]
[1]
  paralysis reversal (in words): paralysis reversal

## Nc1ccncc1N [3,4-DAP, 3,4-diaminopyridine]
[2]
  toxicity issues at high doses (in words): seizures

## C#CC[n+]1ccc(N)c(N)c1 [3,4-diamino-1-(prop-2-ynl)pyridinium]
[1]
  paralysis reversal (in words): paralysis reversal

## Nc1ccncc1 [4-AP, 4-aminopyridine]
[2]
  toxicity issues at high doses (in words): seizures

## CC(=O)OCC[N+](C)(C)C [ACh, acetylcholine]
[3]
  Km: 400 µM

## CCC(=O)Oc1ccc(COC(=O)Nc2ccncc2N)cc1 [Compound 6b]
[4]
  apparent kcat relative to natural substrate BCh: approximately 10^−4
[5]
  binding to AChE more tightly than Km for ACh: 100 fold
  selectivity of AChE over BChE (in words): moderate selectivity

## CC(C)C(=O)Oc1ccc(COC(=O)Nc2ccncc2N)cc1 [Compound 6d]
[4]
  apparent kcat relative to natural substrate BCh: approximately 10^−4
[5]
  binding to AChE more tightly than Km for ACh: 100 fold
  selectivity of AChE over BChE (in words): moderate selectivity

## COC(=O)Nc1cnccc1N [Compound 16]
[6]
  enzymatic generation of 3,4-DAP (in words): failed as pseudosubstrates to generate 3,4-DAP enzymatically

## COC(=O)Nc1ccncc1NC(=O)OC [Compound 17]
[6]
  enzymatic generation of 3,4-DAP (in words): failed as pseudosubstrates to generate 3,4-DAP enzymatically

## COC(=O)Nc1ccncc1N [Compound 19]
[6]
  enzymatic generation of 3,4-DAP (in words): failed as pseudosubstrates to generate 3,4-DAP enzymatically

## CC(=O)Nc1ccncc1N [Compound 21]
[5]
  kinetic mechanism of inhibition of AChE: competitive inhibition
[7]
  release of 3,4-DAP upon incubation with AChE (in words): did not undergo internal release

## CC(C)OC(=O)CCC(=O)Nc1ccncc1N [Compound 32]
[5]
  pKi: 5.52
  selectivity of AChE over BChE (in words): inhibited AChE selectively over BChE
[7]
  release of 3,4-DAP upon incubation with AChE (in words): negligible release of 3,4-DAP
other
  half-life in mouse sera: 2.8 h
